Assay results: patent US20170159101A1, “DRUG-RESISTANT P97 ATPASE MUTATIONS” (Cleave Biosciences, Inc., priority 2014, published 2017)

Columns and labels:
[1] = tested on: Hct116 resistant cell line clone #45 (p97 F539I); experiment: GI50 fold-change, resistant clone #45 vs parental; assay type: cell-based, human; settings: Clone #45, Hct116, resistance generated with compound 4, T1615A / F539I; 72 hrs
Experimental: (§1) Dose titration of test compounds were conducted in Hct116, DLD-1, or LoVo cell lines. In brief, cells were plated in 384-well plates and a selected candidate drug compound was added in a 10-point 2-fold serial dilution.

[2] = tested on: Hct116 resistant cell line clone #5 (p97 D649A); settings: Clone #5, Hct116, resistance generated with compound 2, A1946C / D649A; 72 hrs
[3] = tested on: DLD-1 resistant cell line clone #87 (p97 S541P); experiment: GI50 fold-change, resistant clone #87 vs parental; assay type: cell-based, human; settings: Clone #87, DLD-1, resistance generated with compound 4, T1621T/C / S541P; 72 hrs
Experimental: as §1

[4] = tested on: p97 inhibitor resistant cell lines; experiment: GI50 fold-change in p97 inhibitor resistant cell lines (overall); assay type: cell-based, human; settings: all resistant cell lines of Table 1, in words
Experimental: as §1

[5] = tested on: Hct116 resistant cell line clone #1 (p97 D649N); experiment: GI50 fold-change, resistant clone #1 vs parental; assay type: cell-based, human; settings: Clone #1, Hct116, resistance generated with compound 2, G1945A / D649N; 72 hrs
Experimental: as §1

[6] = tested on: DLD-1 resistant cell line clone #58 (p97 D649D/N); experiment: GI50 fold-change, resistant clone #58 vs parental; assay type: cell-based, human; settings: Clone #58, DLD-1, resistance generated with compound 4, G1945G/A / D649D/N; 72 hrs
Experimental: as §1

[7] = tested on: Hct116 resistant cell line clone #152 (p97 T688I); experiment: GI50 fold-change, resistant clone #152 vs parental; assay type: cell-based, human; settings: Clone #152, Hct116, resistance generated with compound 4, C2063T / T688I; 72 hrs
Experimental: Dose titration of test compounds were conducted in Hct116, DLD-1, or LoVo cell lines. In brief, cells were plated in 384-well plates and a selected candidate drug compound was added in a 10-point 2-fold serial dilution. […] Hct116 cells were plated at 50,000 cells per 15 cm dish and treated with GI50-GI90 doses of test compound for 2-4 weeks until individual colonies of cells were visible on the plate.

[8] = tested on: Hct116 resistant cell line clone #3 (p97 G481A); settings: Clone #3, Hct116, resistance generated with compound 2, G1442C / G481A; 72 hrs
[9] = tested on: Hct116 resistant cell line clone #33 (p97 P472L); experiment: GI50 fold-change, resistant clone #33 vs parental; assay type: cell-based, human; settings: Clone #33, Hct116, resistance generated with compound 4, C1415T / P472L; 72 hrs
Experimental: as §1

[10] = tested on: Hct116 resistant cell line clone #7 (p97 A659T); settings: Clone #7, Hct116, resistance generated with compound 3, G1975A / A659T; 72 hrs
[11] = tested on: Hct116 resistant cell line clone #180 (p97 A569T); experiment: GI50 fold-change, resistant clone #180 vs parental; assay type: cell-based, human; settings: Clone #180, Hct116, resistance generated with compound 4, G1705A / A569T; 72 hrs
Experimental: as §1

[12] = tested on: Hct116 resistant cell line clone #34 (p97 E470D/E); experiment: GI50 fold-change, resistant clone #34 vs parental; assay type: cell-based, human; settings: Clone #34, Hct116, resistance generated with compound 4, G1410T/G / E470D/E; 72 hrs
Experimental: as §1

| Structure (SMILES) | Fold Change in GI50 Compared to Parental Cell Line [1] [fold] | Fold Change in GI50 Compared to Parental Cell Line [2] [fold] | Fold Change in GI50 Compared to Parental Cell Line [3] [fold] | fold-change in GI50 for the p97 inhibitor resistant cell lines [4] | Fold Change in GI50 Compared to Parental Cell Line [5] [fold] | Fold Change in GI50 Compared to Parental Cell Line [6] [fold] | Fold Change in GI50 Compared to Parental Cell Line [7] [fold] | Fold Change in GI50 Compared to Parental Cell Line [8] [fold] | Fold Change in GI50 Compared to Parental Cell Line [9] [fold] | Fold Change in GI50 Compared to Parental Cell Line [10] [fold] | Fold Change in GI50 Compared to Parental Cell Line [11] [fold] | Fold Change in GI50 Compared to Parental Cell Line [12] [fold] |
| --- | --- | --- | --- | --- | --- | --- | --- | --- | --- | --- | --- | --- |
| CC(C)C[C@H](NC(=O)[C@H](Cc1ccccc1)NC(=O)c1cnccn1)B(O)O [Compound 1, [(1R)-3-methyl-1-[(2S)-3-phenyl-2-(pyrazin-2-ylformamido)propanamido]butyl]boronic acid, reference compound] | 0.8 | 1.0 | 1.1 | little fold-change in GI50 | 1.0 | 1.3 | 1.0 | 0.9 | 0.9 | 0.9 | 0.8 | 0.8 |
| Cc1cc2c(C(N)=O)cccc2n1-c1nc2c(c(NCc3ccccc3)n1)COCC2 [Compound 4, 1-[4-(benzylamino)-5H,7H,8H-pyrano[4,3-d]pyrimidin-2-yl]-2-methyl-1H-indole-4-carboxamide] | 6.4 | 18.7 | 39.8 |  | 20.0 | 1.8 | 60.7 | 19.4 | 11.6 | 3.8 | 5.9 | 3.7 |
